Like-named read-outs stand apart in the source and are kept apart here.
Key:
[1] = test system: Fusarium graminearum (FGR; isolate 73B ISU); assay type: cell-based
[2] = test system: Fusarium verticillioides (FVE; isolate MO33); assay type: cell-based
[3] = test system: Colletotrichum graminicola (CGR; isolate Carroll-IA-99); assay type: cell-based
[4] = test system: Diplodia maydis (DMA; isolate Warren-IN-96); settings: general statement on parent polypeptides; cited from earlier work
[5] = test system: Fusarium verticillioides (FVE; isolate MO33); settings: general statement on parent polypeptides; cited from earlier work
[6] = test system: Colletotrichum graminicola (CGR; isolate Carroll-IA-99); settings: general statement on parent polypeptides; cited from earlier work
[7] = test system: Diplodia maydis (DMA; isolate Warren-IN-96); assay type: cell-based
[8] = test system: Fusarium graminearum (FGR; isolate 73B ISU); settings: general statement on parent polypeptides; cited from earlier work

Row | Substance | In vitro antifungal activity (IC50) against F. graminearum (FGR) ([1]; high salt conditions) | In vitro antifungal activity (IC50) against F. verticillioides (FVE) [2] | In vitro antifungal activity (IC50) against F. graminearum (FGR) ([1]; low salt conditions) | further results
1 | LB-9827-3B-25G5: LBNL variant generated through gene shuffling of the LB-9827-1 mature peptide coding sequence (LSKYGGECSRAHNTCTYRKGGKNQVVKCGTAANKKCKSDRHHCEYDDYHKRVDCQTPV; Synthetic peptide LB-9827-3B-25G5) | 2.5 ppm | 3.8 ppm |  | 
2 | LB-5220 (r2 5G7): LBNL variant generated through gene shuffling of the LB-5220 mature peptide coding sequence (LKYTGTCRRANNQCKYKGQNNRDTFVKCPTFANKKCTRDGAKCSFDSYSRAVTCD; Synthetic peptide LB-5220 (r2-5G7)) | >100 ppm |  | >10 ppm | 
3 | LB-9827-1: parent antifungal polypeptide from the fungus Monascus ruber, previously disclosed in U.S. Pat. No. 7,306,946 (LSKFGGECSLKHNTCTYLKGGKNHVVNCGSAANKKCKSDRHHCEYDEHHKRVDCQTPV; Monascus ruber) [reference compound] | 1.5 ppm |  | <0.1 ppm | In vitro antifungal activity (IC50) against C. graminicola (CGR) ([3]; high salt conditions): 3 ppm; In vitro antifungal activity (IC50) against C. graminicola (CGR) ([3]; low salt conditions): 1.5 ppm; antifungal activity against Diplodia maydis (DMA), in words [4]: exhibit antifungal activity; antifungal activity against Fusarium verticillioides (FVE), in words [5]: exhibit antifungal activity; antifungal activity against Colletotrichum graminicola (CGR), in words [6]: exhibit antifungal activity; In vitro antifungal activity (IC50) against D. maydis (DMA) ([7]; high salt conditions): 12 ppm; In vitro antifungal activity (IC50) against D. maydis (DMA) ([7]; low salt conditions): 1.5 ppm; antifungal activity against Fusarium graminearum (FGR), in words [8]: exhibit antifungal activity
4 | LB-5220 (r2 6F2): LBNL variant generated through gene shuffling of the LB-5220 mature peptide coding sequence (LKYTGTCRRANNQCKYKGQNNRDTFVKCPTFANKKCTRDGEKCSFDSYSRAVTCD; LB-5220 (r2-6F2)) | >100 ppm |  | >10 ppm | 
5 | LB-9827-3B-21E10: LBNL variant generated through gene shuffling of the LB-9827-1 mature peptide coding sequence (LSKYGGECSRAHNTCTYRKGGKNQVVNCPSAANKKCKSDRHHCEYDEYHKRVDCQTPV; Synthetic peptide LB-9827-3B-21E10) | 1.25 ppm | 30 ppm |  | 
6 | LB-5220 (ps 1B4): LBNL variant generated through gene shuffling of the LB-5220 mature peptide coding sequence (LKYTGTCTRKNNQCKYRGQNNRDTFVKCPTFANKRCTRDGAPCSFDSYSRAVTCD; Synthetic peptide LB-5220 (ps-1B4)) | >100 ppm |  | >10 ppm | 
7 | LB-9827-3B-25F2: LBNL variant generated through gene shuffling of the LB-9827-1 mature peptide coding sequence (LSKYGGECSREHNTCTYLKGGKNQVVACGSAANKKCKRDRHHCEYDDYHKTVDCQTPV; Synthetic peptide LB-9827-3B-25F2) | 2.5 ppm | 15 ppm |  | 
8 | LB-9827-3A-11E4: LBNL variant generated through gene shuffling of the LB-9827-1 mature peptide coding sequence (LSKYGGECSRKHNTCTYKKGGKNQIVNCPTAANKRCKTDRHHCEYDEYHRRVDCQTPV; LB-9827-3A-11E4) | 0.63 ppm | 15 ppm |  | 
9 | LB-5220: parent antifungal polypeptide isolated from Penicillium simplicissimum, previously disclosed in U.S. Pat. No. 7,306,946 (LKYTGTCTRANNQCKYKGQNDRDTFVKCPTFANKKCTRDGAPCSFDSYSRAVTCD; listed as Penicillium simplicissimum) [reference compound] | >100 ppm |  | >10 ppm | antifungal activity against Diplodia maydis (DMA), in words [4]: exhibit antifungal activity; antifungal activity against Fusarium verticillioides (FVE), in words [5]: exhibit antifungal activity; antifungal activity against Colletotrichum graminicola (CGR), in words [6]: exhibit antifungal activity; In vitro antifungal activity (IC50) against D. maydis (DMA) ([7]; high salt conditions): 50 ppm; In vitro antifungal activity (IC50) against D. maydis (DMA) ([7]; low salt conditions): <0.1 ppm; antifungal activity against Fusarium graminearum (FGR), in words [8]: exhibit antifungal activity

Source: patent publication US8853490B2 (priority 2010, dated 2014)
